A value given as a limit tells only on which side of the number the result lay.

In assay [1] the test system is Bel-7402. In words: Antiproliferative activity against human Bel7402 cells at 0.5 to 20 uM by MTT assay. The format is functional, cell-based. To be noted: TDE = time-dependent effect.
The test system of assay [2] is Bel-7402. In words: Cell cycle arrest in human Bel7402 cells assessed as accumulation in G2/M phase (reference value: 43.75+/- 1.1 %). The format is functional.
The test system of assay [3] is Bel-7402. The experiment in a line: Cell cycle arrest in human Bel7402 cells assessed as accumulation in S phase (reference value: 18.65+/- 0.5 %). The format is functional.
Assay [4] deals with A549. The experiment in a line: Antiproliferative activity against human A549 cells by MTT assay. In kind it is functional, cell-based.
Assay [5] has as its system HCT-8. In words: Antiproliferative activity against human HCT8 cells by MTT assay. In kind it is functional, cell-based.
For assay [6], the system named is Bel-7402. In words: Antiproliferative activity against human Bel7402 cells by MTT assay. In kind it is functional, cell-based.
In assay [7] the test system is Bel-7402. In words: Antiproliferative activity against human Bel7402 cells after 12 to 72 hrs by MTT assay. The format is functional, cell-based.
Assay [8] relates to Bel-7402. The experiment in a line: Cell cycle arrest in human Bel7402 cells assessed as accumulation in G1 phase (reference value: 37.6+/- 1.4 %). The format is functional.

In the case of `C[C@@H]1O[C@@H](O[C@H]2[C@H](O)[C@@H](CO)O[C@@H](O[C@H]3CO[C@@H](O[C@H]4CC[C@]5(C)[C@H]6CC[C@]78OC[C@@]9(CCC(C)(C)C[C@H]97)[C@H](O)C[C@@]8(C)[C@]6(C)CC[C@H]5C4(C)C)[C@H](O[C@@H]4O[C@H](CO)[C@@H](O)[C@H](O)[C@H]4O)[C@H]3O)[C@@H]2O[C@@H]2OC[C@@H](O)[C@H](O)[C@H]2O)[C@H](O)[C@H](O)[C@H]1O`, the Activity result is “tde” in assay [1]; 48.08% in assay [2]; 18.61% in assay [3]; “Dose-dependent effect” in assay [7]; 33.31% in assay [8]. Also, the 50% inhibitory concentration (IC50) is 51.8 µM in assay [4], greater than 100 µM in assay [5] and 0.86 µM in assay [6].

Values taken from ChEMBL document CHEMBL2440114, “Methanolysis of triterpenoid saponin from Ardisia gigantifolia stapf. and structure-activity relationship study against cancer cells” (Bioorg Med Chem Lett, 2013).
